Source: ChEMBL document CHEMBL1131884, “Dicationic 2-fluorenonylcarbapenems: potent anti-MRS agents with improved solubility and pharmacokinetic properties” (Bioorg Med Chem Lett, 1999)

Columns and labels:
[1] = target: T1, MecA (Staphylococcus aureus, UniProt Q7DHH4); assay: Binding affinity against PBP2a receptor by competition analysis with [3H]benzylpenicillin using cell membrane fractions from the MRSA COL strain.
T1 sequence (Q7DHH4 whole entry): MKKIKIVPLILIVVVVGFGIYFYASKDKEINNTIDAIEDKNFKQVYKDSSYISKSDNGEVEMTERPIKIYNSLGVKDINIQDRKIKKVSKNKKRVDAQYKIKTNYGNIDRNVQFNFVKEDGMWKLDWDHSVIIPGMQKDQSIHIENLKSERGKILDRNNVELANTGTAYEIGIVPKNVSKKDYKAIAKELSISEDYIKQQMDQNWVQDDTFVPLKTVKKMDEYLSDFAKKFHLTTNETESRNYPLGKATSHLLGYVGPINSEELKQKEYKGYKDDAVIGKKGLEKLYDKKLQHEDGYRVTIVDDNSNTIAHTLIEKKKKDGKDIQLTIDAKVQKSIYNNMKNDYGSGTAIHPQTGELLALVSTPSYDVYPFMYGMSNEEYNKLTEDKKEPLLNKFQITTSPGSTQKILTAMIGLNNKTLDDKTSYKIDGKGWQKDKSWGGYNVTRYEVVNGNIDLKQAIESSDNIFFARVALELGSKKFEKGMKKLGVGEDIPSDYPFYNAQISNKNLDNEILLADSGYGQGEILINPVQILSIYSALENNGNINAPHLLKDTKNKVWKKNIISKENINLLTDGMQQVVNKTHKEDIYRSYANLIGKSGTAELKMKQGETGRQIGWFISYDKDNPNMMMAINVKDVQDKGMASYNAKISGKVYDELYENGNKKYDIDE

[2] = test system: Staphylococcus sp.; assay: Antibacterial activity against methicillin-resistant coagulase negative Staphylococci (MRCNS); type: functional
[3] = test system: Staphylococcus aureus; assay: Antibacterial activity against methicillin-resistant Staphylococcus aureus (MRSA); type: functional

Row | Structure (SMILES) | IC50 [1] [nM] | MIC50 [2] [µg/mL] | MIC90 [2] [µg/mL] | MIC50 [3] [µg/mL] | MIC90 [3] [µg/mL]
1 | C[C@@H](O)[C@H]1C(=O)N2C(C(=O)O)=C(c3ccc4c(c3)-c3ccc(C[N+]56CC[N+](CCO)(CC5)CC6)cc3C4=O)C[C@H]12.[Cl-].[Cl-] | 276 | 2 | 4 | 2 | 4
2 | COc1ccccc1NC(=O)C[N+]12CC[N+](Cc3ccc4c(c3)C(=O)c3ccc(C5=C(C(=O)O)N6C(=O)[C@H]([C@@H](C)O)[C@H]6[C@H]5C)cc3-4)(CC1)CC2.[Cl-].[Cl-] | 867 | 2 | 4 | 1 | 2
3 | C[C@@H](O)[C@H]1C(=O)N2C(C(=O)O)=C(c3ccc4c(c3)-c3ccc(C[N+]56CC[N+](CC#N)(CC5)CC6)cc3C4=O)[C@H](C)[C@H]12.[Cl-].[Cl-] | 464 | 4 | 8 | 2 | 4
4 | C[C@@H](O)[C@H]1C(=O)N2C(C(=O)O)=C(c3ccc4c(c3)-c3ccc(C[N+]56CC[N+](CC(=O)Nc7ccccc7C#N)(CC5)CC6)cc3C4=O)[C@H](C)[C@H]12.[Cl-].[Cl-] | 1100 | 2 | 4 | 1 | 2
5 | C[C@@H](O)[C@H]1C(=O)N2C(C(=O)O)=C(c3ccc4c(c3)-c3ccc(C[N+]56CC[N+](CC(=O)N(C)C)(CC5)CC6)cc3C4=O)C[C@H]12.[Cl-].[Cl-] | – | 4 | 4 | 4 | 4
6 | C[C@@H](O)[C@H]1C(=O)N2C(C(=O)O)=C(c3ccc4c(c3)-c3ccc(C[N+]56CC[N+](CC(=O)Nc7ccccc7)(CC5)CC6)cc3C4=O)[C@H](C)[C@H]12.[Cl-].[Cl-] | 1780 | 2 | 4 | 2 | 2
7 | C[C@@H](O)[C@H]1C(=O)N2C(C(=O)O)=C(c3ccc4c(c3)-c3ccc(C[N+]56CC[N+](CC(=O)Nc7ccccc7C(N)=O)(CC5)CC6)cc3C4=O)[C@H](C)[C@H]12.[Cl-].[Cl-] | 1020 | 2 | 8 | 2 | 4
8 | C[C@@H](O)[C@H]1C(=O)N2C(C(=O)O)=C(c3ccc4c(c3)-c3ccc(C[N+]56CC[N+](CC(=O)Nc7cccnc7)(CC5)CC6)cc3C4=O)[C@H](C)[C@H]12.[Cl-].[Cl-] | 611 | 2 | 4 | 1 | 2
9 | C[C@@H](O)[C@H]1C(=O)N2C(C(=O)O)=C(c3ccc4c(c3)-c3ccc(C[N+]56CC[N+](CC(=O)Nc7cccc(C(N)=O)c7)(CC5)CC6)cc3C4=O)[C@H](C)[C@H]12.[Cl-].[Cl-] | 1220 | 1 | 2 | 1 | 1
10 | C[C@@H](O)[C@H]1C(=O)N2C(C(=O)O)=C(c3ccc4c(c3)-c3ccc(C[N+]56CC[N+](CCOc7ccccc7)(CC5)CC6)cc3C4=O)[C@H](C)[C@H]12.[Cl-].[Cl-] | 566 | 2 | 4 | 1 | 2
11 | COc1ccc(NC(=O)C[N+]23CC[N+](Cc4ccc5c(c4)C(=O)c4ccc(C6=C(C(=O)O)N7C(=O)[C@H]([C@@H](C)O)[C@H]7[C@H]6C)cc4-5)(CC2)CC3)cc1.[Cl-].[Cl-] | 1190 | 1 | 4 | 1 | 1
12 | C[C@@H](O)[C@H]1C(=O)N2C(C(=O)O)=C(c3ccc4c(c3)-c3ccc(C[N+]56CC[N+](CC(=O)Nc7ccccc7)(CC5)CC6)cc3C4=O)C[C@H]12.[Cl-].[Cl-] | 468 | 1 | 1 | 0.5 | 2
13 | C[C@@H](O)[C@H]1C(=O)N2C(C(=O)O)=C(c3ccc4c(c3)-c3ccc(C[N+]56CC[N+](CC(=O)Nc7ccc(CCO)cc7)(CC5)CC6)cc3C4=O)[C@H](C)[C@H]12.[Cl-].[Cl-] | 1310 | 2 | 4 | 1 | 2
14 | C[C@@H](O)[C@H]1C(=O)N2C(C(=O)O)=C(c3ccc4c(c3)-c3ccc(C[N+]56CC[N+](C)(CC5)CC6)cc3C4=O)C[C@H]12.[Cl-].[Cl-] | 307 | 2 | 4 | 2 | 8
15 | CC(=O)C[N+]12CC[N+](Cc3ccc4c(c3)C(=O)c3ccc(C5=C(C(=O)O)N6C(=O)[C@H]([C@@H](C)O)[C@H]6C5)cc3-4)(CC1)CC2.[Cl-].[Cl-] | – | 4 | 4 | 2 | 8
16 | C[C@@H](O)[C@H]1C(=O)N2C(C(=O)O)=C(c3ccc4c(c3)-c3ccc(C[N+]56CC[N+](Cc7ccccc7)(CC5)CC6)cc3C4=O)[C@H](C)[C@H]12.[Cl-].[Cl-] | 3250 | 2 | 8 | 1 | 2
17 | CC(=O)c1ccc(NC(=O)C[N+]23CC[N+](Cc4ccc5c(c4)C(=O)c4ccc(C6=C(C(=O)O)N7C(=O)[C@H]([C@@H](C)O)[C@H]7[C@H]6C)cc4-5)(CC2)CC3)cc1.[Cl-].[Cl-] | 3150 | 1 | 4 | 0.5 | 1
18 | C[C@@H](O)[C@H]1C(=O)N2C(C(=O)O)=C(c3ccc4c(c3)-c3ccc(C[N+]56CC[N+](CC(=O)c7ccccc7)(CC5)CC6)cc3C4=O)C[C@H]12.[Cl-].[Cl-] | – | 2 | 4 | 2 | 4
19 | CC(C)NC(=O)C[N+]12CC[N+](Cc3ccc4c(c3)C(=O)c3ccc(C5=C(C(=O)O)N6C(=O)[C@H]([C@@H](C)O)[C@H]6[C@H]5C)cc3-4)(CC1)CC2.[Cl-].[Cl-] | 1240 | 4 | 8 | 2 | 4
20 | CNC(=O)C[N+]12CC[N+](Cc3ccc4c(c3)C(=O)c3ccc(C5=C(C(=O)O)N6C(=O)[C@H]([C@@H](C)O)[C@H]6C5)cc3-4)(CC1)CC2.[Cl-].[Cl-] | – | 2 | 4 | 2 | 8
21 | C[C@@H](O)[C@H]1C(=O)N2C(C(=O)O)=C(c3ccc4c(c3)-c3ccc(C[N+]56CC[N+](CC(=O)Nc7cccc(C#N)c7)(CC5)CC6)cc3C4=O)[C@H](C)[C@H]12.[Cl-].[Cl-] | 752 | 1 | 2 | 0.5 | 1
22 | C[C@@H](O)[C@H]1C(=O)N2C(C(=O)O)=C(c3ccc4c(c3)-c3ccc(C[N+]56CC[N+](CC(=O)NCc7ccccc7)(CC5)CC6)cc3C4=O)[C@H](C)[C@H]12.[Cl-].[Cl-] | 1320 | 1 | 4 | 1 | 2
23 | C[C@@H](O)[C@H]1C(=O)N2C(C(=O)O)=C(c3ccc4c(c3)-c3ccc(C[N+]56CC[N+](CC(=O)Nc7nccs7)(CC5)CC6)cc3C4=O)[C@H](C)[C@H]12.[Cl-].[Cl-] | 853 | 4 | 8 | 2 | 4
24 | COC(=O)C[N+]12CC[N+](Cc3ccc4c(c3)C(=O)c3ccc(C5=C(C(=O)O)N6C(=O)[C@H]([C@@H](C)O)[C@H]6C5)cc3-4)(CC1)CC2.[Cl-].[Cl-] | – | 16 | 16 | 8 | 16
